From US6613762B2, “Gambogic acid, analogs and derivatives as activators of caspases and inducers of apoptosis” (Cytovia, Inc., priority 1999, dated 2003)
pEC50: −log10 of the molar value. Like-named read-outs stand apart in the source and are kept apart here. Values belong to the molecule of their own block, whether it stands above or below them.

What was measured:
[1] = tested on: human non-small cell lung cancer cell line A-549; experiment: Inhibition of cell proliferation (GI50) and cell death (LC50), A-549; format: cell-based; conditions: Homo sapiens
Description: (§1) T47D, ZR-75-1, PC-3, human prostate cancer cell line DU-145, human non-small cell lung cancer cell line A-549, human small cell lung cancer cell line SHP-77, HL-60 and MRC-5 cells were grown and harvested as in Example 90. […] The samples were mixed by agitation and incubated at 37° C. for 2-4 h in a 5% CO2-95% humidity incubator. […] This determines the possible background absorbance of the test compounds. No absorbance for gambogic acid or its analogs or derivatives was found at 490 nm. After the 2-4 h incubation, the samples were read for absorbance as above (ATest).
(§2) Baseline for GI50 (dose for 50% inhibition of cell proliferation) and LC50 (dose for 50% cell death) of initial cell numbers was determined by adding an aliquot of 90 μl of cells or 90 μl of media, respectively, to wells of a 96-well microtiter plate containing 10 μl of a 10% DMSO in RPMI-1640 media solution. […] The samples were mixed by agitation and incubated at 37° C. for 2-4 h in a 5% CO2-95% humidity incubator. Absorbance was read as above, (AT=0) defining absorbance for initial cell number used as baseline in GI50 determinations and (Amin) defining absorbance for media alone used as baseline in LC50 determinations.
(§3) GI50 (dose for 50% inhibition of cell proliferation)
(§4) LC50 (dose for 50% cell death)
(§5) 50=100×[(ATest−Amin)/(AT=0−Amin)]

MRC-5 cells = experiment: Inhibition of cell proliferation (GI50) and cell death (LC50), MRC-5; format: cell-based; conditions: Homo sapiens, MRC5; MRC-5, 48 h; read-out: GI50 (dose for 50% inhibition of cell proliferation)
Description: as §1, §2, §3, §4, §5

[2] = as above; format: cell-based; conditions: human
Description: as §1, §2, §3, §4, §5

PC-3 cells = experiment: Inhibition of cell proliferation (GI50) and cell death (LC50), PC-3; format: cell-based; conditions: Homo sapiens, PC-3, 48 h
Description: as §1, §2, §3, §4, §5

[3] = tested on: human small cell lung cancer cell line SHP-77; experiment: Inhibition of cell proliferation (GI50) and cell death (LC50), SHP-77; format: cell-based; conditions: Homo sapiens
Description: as §1, §2, §3, §4, §5

[4] = tested on: human prostate cancer cell line DU-145; experiment: Inhibition of cell proliferation (GI50) and cell death (LC50), DU-145; format: cell-based; conditions: Homo sapiens, DU-145, 48 h
Description: as §1, §2, §3, §4, §5

[5] = tested on: caspase cascade, human prostate cancer cell line PC-3; experiment: Caspase cascade activation assay (Example 90), PC-3; format: cell-based; conditions: Homo sapiens; 24 h incubation; sigmoidal dose-response; read-out: PC-3 EC50 (caspase activation potency)
Description: (§6) Human breast cancer cell lines T-47D and ZR-75-1, human prostate cancer cell line PC-3, human leukemia cancer cell line HL-60 and human non-transformed fibroblast cell line MRC-5 cells were grown according to media component mixtures designated by The American Type Culture Collection+10% FCS (Life Technologies, Inc.), in a 5% CO2-95% humidity incubator at 37° C. T-47D, ZR-75-1 and PC-3 cells were maintained at a cell density between 30 and 80% confluency and for HL-60 at a cell density of 0.1 to 0.6×10^6 cells/m. Cells were harvested at 600× g and resuspended at 0.65×10^6 cells/ml into appropriate media +10% FCS. […] The samples were mixed by agitation and incubated at room temperature.
(§7) The EC50 (nM) was determined by a sigmoidal dose-response calculation (Prism 2.0, GraphPad Software Inc.).

T-47D cells = experiment: Inhibition of cell proliferation (GI50) and cell death (LC50), T-47D; format: cell-based; conditions: Homo sapiens, T47D, 48 h
Description: as §1, §2, §3, §4, §5

ZR-75-1 cells = experiment: Inhibition of cell proliferation (GI50) and cell death (LC50), ZR-75-1; format: cell-based; conditions: Homo sapiens, ZR-75-1, 48 h
Description: as §1, §2, §3, §4, §5

[6] = tested on: caspase cascade, human breast cancer cell line T-47D; experiment: Caspase cascade activation assay (Example 90), T-47D; format: cell-based; conditions: Homo sapiens, T47D; 24 h incubation; sigmoidal dose-response; read-out: T-47D EC50 (caspase activation potency)
Description: as §6, §7

HL-60 cells = experiment: Inhibition of cell proliferation (GI50) and cell death (LC50), HL-60; format: cell-based; conditions: Homo sapiens, HL-60, 48 h
Description: as §1, §2, §3, §4, §5

[7] = tested on: caspase cascade, human breast cancer cell line ZR-75-1; experiment: Caspase cascade activation assay (Example 90), ZR-75-1; format: cell-based; conditions: Homo sapiens, ZR-75-1; 24 h incubation; sigmoidal dose-response; read-out: ZR-75-1 EC50 (caspase activation potency)
Description: as §6, §7

caspase cascade = experiment: Caspase cascade activation assay (Example 90), MRC-5; format: cell-based, human; conditions: human
Description: as §6, §7

KB-V1 cell line = conditions: cited from earlier work
KB cell line = conditions: cited from earlier work
[8] = tested on: caspase cascade, PC-3 cells; experiment: Known antineoplastic compounds as caspase cascade activators (Example 92), PC-3; format: cell-based, human; conditions: 10 μM final, 24 h; ratio of net RFU to control; ratio around 1 = not an efficient activator
Description: (§8) An aliquot of 45 μl of cells was added to a well of a 96-well microtiter plate containing 5 μl of a 10% DMSO in RPMI-1640 media solution containing 100 μM of test compounds (10 μM final). An aliquot of 45 μl of cells was added to a well of a 96-well microtiter plate containing 5 μl of a 10% DMSO in RPMI-1640 media solution without test compound as the control sample. The samples were mixed by agitation and then incubated at 37° C. for 24 h in a 5% CO2-95% humidity incubator. After incubation, the samples were removed from the incubator and 50 μl of a solution containing 20 μM of N-(Ac-DEVD)-N′-ethoxycarbonyl-R110 fluorogenic substrate (SEQ ID NO:1) (Cytovia, Inc.), 20% sucrose (Sigma), 20 mM DTT (Sigma), 200 mM NaCl (Sigma), 40 mM Na PIPES buffer pH 7.2 (Sigma), and 500 μg/ml lysolecithin (Calbiochem) was added. The samples were mixed by agitation and incubated for 3 h at room temperature. Using a fluorescent plate reader (Model 1420 Wallac Instruments), an initial reading (T=0) was made approximately 1-2 min. after addition of the substrate solution, employing excitation at 485 nm and emission at 530 nm, to determine the background fluorescence of the control sample. After the 3 h incubation, the samples were read for fluorescence as above (T=3 h).
(§9) The Relative Fluorescence Unit values (RFU) were used to calculate the sample readings as follows:
(§10) The activity in caspase cascade activation was determined by the ratio of the net RFU value for test compounds to that of control samples.

[9] = tested on: caspase cascade, T-47D cells; experiment: Known antineoplastic compounds as caspase cascade activators (Example 92), T-47D; format: cell-based, human; conditions: 10 μM final, 24 h; ratio of net RFU to control; ratio around 1 = not an efficient activator
Description: as §8, §9, §10

[10] = read-out: LC50 (dose for 50% cell death)
[11] = read-out: GI50 (dose for 50% inhibition of cell proliferation)
[12] = reported by Lin et al., Magn. Reson. Chem. 31:340-347 (1993)

Compound: COC(=O)/C(C)=C\CC12OC(C)(C)C3CC(C=C4C(=O)c5c(OC)c6c(c(CC=C(C)C)c5OC431)OC(C)(CCC=C(C)C)C=C6)C2=O (centres unmarked) [Example 6, Methyl-6-methoxy-gambogate]
CC50 ([1]; A549, 48 h, read-out: LC50 (dose for 50% cell death)): 900 nM
GI50 ([1]; A549, A-549, 48 h, read-out: GI50 (dose for 50% inhibition of cell proliferation)): 500 nM
GI50 (MRC-5 cells): 500 nM
CC50 at 48 h [2]: 500 nM
CC50 (PC-3 cells; [10]): 500 nM
GI50 (PC-3 cells; [11]): 500 nM
CC50 ([3]; SHP77, 48 h, read-out: LC50 (dose for 50% cell death)): 500 nM
GI50 ([3]; SHP77, SHP-77, 48 h, read-out: GI50 (dose for 50% inhibition of cell proliferation)): 500 nM
CC50 [4, 10]: 900 nM
GI50 [4, 11]: 500 nM
pEC50 [5]: 5.30
CC50 (T-47D cells; [10]): 80 nM
GI50 (T-47D cells; T-47D, read-out: GI50 (dose for 50% inhibition of cell proliferation)): 50 nM
CC50 (ZR-75-1 cells; [10]): 500 nM
GI50 (ZR-75-1 cells; [11]): 400 nM
pEC50 [6]: 5.55
CC50 (HL-60 cells; [10]): 800 nM
GI50 (HL-60 cells; [11]): 100 nM

pEC50 [7]: 5.69
pEC50 [5]: 5.23
EC50 at 24 h (caspase cascade): 1900 nM
pEC50 [6]: 6.00
Compound: CC(C)=CCCC1(C)C=Cc2c(O)c3c(c(CC=C(C)C)c2O1)OC12C(=CC4CC1C(C)(C)OC2(C/C=C(/C)C(=O)N1CCN(C)CC1)C4=O)C3=O (centres unmarked) [Example 9, Gambogyl (4-Methylpiperazine)]

Compound: CC(C)=CCCC1(C)C=Cc2c(O)c3c(c(CC=C(C)C)c2O1)OC12C(=CC4CC1C(C)(C)OC2(C/C=C(\C)C(=O)O)C4=O)C3=O (centres unmarked) [Example 18, Isogambogic Acid]
Cytotoxicity against KB-V1 cell line (KB-V1 cell line): cytotoxic
Cytotoxicity against KB cell line (KB cell line): cytotoxic

Compound: CN(Cc1cnc2nc(N)nc(N)c2n1)c1ccc(C(=O)N[C@@H](CCC(=O)O)C(=O)O)cc1 [Methotrexate]
Caspase cascade activation ratio, PC-3 [8]: 0.7
Caspase cascade activation ratio, T-47D [9]: 0.8

Compound: CC(=O)O[C@H]1C(=O)[C@@]2(C)[C@H]([C@H](OC(=O)c3ccccc3)[C@]3(O)C[C@H](OC(=O)[C@H](O)[C@@H](NC(=O)c4ccccc4)c4ccccc4)C(C)=C1C3(C)C)[C@]1(OC(C)=O)CO[C@@H]1C[C@@H]2O [Taxol]
Caspase cascade activation ratio, PC-3 [8]: 0.7
Caspase cascade activation ratio, T-47D [9]: 0.9

Compound: CC[C@]1(O)C[C@@H]2CN(CCc3c([nH]c4ccccc34)[C@@](C(=O)OC)(c3cc4c(cc3OC)N(C)[C@H]3[C@@](O)(C(=O)OC)[C@H](OC(C)=O)[C@]5(CC)C=CCN6CC[C@]43[C@@H]65)C2)C1 [Vinblastine]
Caspase cascade activation ratio, PC-3 [8]: 0.8
Caspase cascade activation ratio, T-47D [9]: 0.9

Compound: CC(C)=CCc1c2c(c(O)c3c1OC14C(=CC5CC1C(C)(C)OC4(C/C=C(\C)CO)C5=O)C3=O)C=CC(C)(C)O2 (centres unmarked) [isomorellinol, reference compound]
Cytotoxicity against KB-V1 cell line (KB-V1 cell line; [12]): cytotoxic
Cytotoxicity against KB cell line (KB cell line; [12]): cytotoxic
